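Where inhibition never reached the appropriate level, the endpoint shown equals the highest concentration tested. Otherwise, values were interpolated linearly from a five-concentration, 48-hour dose response in 96-well plates. GI50: concentration for 50% inhibition of growth. At the TGI there is no net growth.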
Experiments:
Assay in all cases: inhibition of tumour cell growth, NCI panel, 48 h
SF-295 CNS = system: SF-295 CNS
NCI-H23 lung = system: NCI-H23 lung
HCT-116 colon = system: HCT-116 colon
A549 NSCLC = system: A549 NSCLC
OVCAR-4 ovarian = system: OVCAR-4 ovarian
SK-OV-3 ovarian = system: SK-OV-3 ovarian
BT-549 breast = system: BT-549 breast
CCRF-CEM leukemia = system: CCRF-CEM leukemia
K-562 leukemia = system: K-562 leukemia
MDA-MB-231 breast = system: MDA-MB-231 breast
NCI-H460 lung = system: NCI-H460 lung
SN12C renal = system: SN12C renal
UO-31 renal = system: UO-31 renal
TK-10 renal = system: TK-10 renal
MCF7 breast = system: MCF7 breast
SW-620 colon = system: SW-620 colon
SK-MEL-2 melanoma = system: SK-MEL-2 melanoma
HCT-15 colon = system: HCT-15 colon
SF-539 CNS = system: SF-539 CNS
KM12 colon = system: KM12 colon
HL-60(TB) leukemia = system: HL-60(TB) leukemia
COLO 205 colon = system: COLO 205 colon
IGROV1 ovarian = system: IGROV1 ovarian
MDA-MB-435 = system: MDA-MB-435
SNB-19 CNS = system: SNB-19 CNS
T-47D breast = system: T-47D breast
OVCAR-3 ovarian = system: OVCAR-3 ovarian
SNB-75 CNS = system: SNB-75 CNS

CN(C)c1cc[n+](/C(NS(=O)(=O)c2cc(C(=O)Nc3ccc(Cl)cc3)c(Cl)cc2[S-])=C(\C#N)C(=O)c2ccccc2)cc1
GI50 (SF-295 CNS): 27.1 µM | TGI (SF-295 CNS): 68.7 µM | GI50 (NCI-H23 lung): 41.2 µM | TGI (NCI-H23 lung): > 100 µM | GI50 (HCT-116 colon): 14.9 µM | TGI (HCT-116 colon): 34.3 µM | GI50 (A549 NSCLC): 41.5 µM | TGI (A549 NSCLC): > 100 µM | GI50 (OVCAR-4 ovarian): 18 µM | TGI (OVCAR-4 ovarian): 38.8 µM | GI50 (SK-OV-3 ovarian): 36.5 µM | TGI (SK-OV-3 ovarian): 99.3 µM | GI50 (BT-549 breast): 25.4 µM | TGI (BT-549 breast): 82.8 µM | GI50 (CCRF-CEM leukemia): 33.1 µM | TGI (CCRF-CEM leukemia): > 100 µM | GI50 (K-562 leukemia): 89.4 µM | TGI (K-562 leukemia): > 100 µM | GI50 (MDA-MB-231 breast): 16.7 µM | TGI (MDA-MB-231 breast): 48.5 µM | GI50 (NCI-H460 lung): 14.4 µM | TGI (NCI-H460 lung): 49.4 µM | GI50 (SN12C renal): 79.8 µM | TGI (SN12C renal): > 100 µM | GI50 (UO-31 renal): 23.8 µM | TGI (UO-31 renal): 54.7 µM | GI50 (TK-10 renal): 29.1 µM | TGI (TK-10 renal): > 100 µM | GI50 (MCF7 breast): 25.1 µM | TGI (MCF7 breast): > 100 µM | GI50 (SW-620 colon): 32 µM | TGI (SW-620 colon): > 100 µM | GI50 (SK-MEL-2 melanoma): 85 µM | TGI (SK-MEL-2 melanoma): > 100 µM | GI50 (HCT-15 colon): 17.4 µM | TGI (HCT-15 colon): 65.1 µM | GI50 (SF-539 CNS): 11.9 µM | TGI (SF-539 CNS): 24.8 µM | GI50 (KM12 colon): 40.6 µM | TGI (KM12 colon): > 100 µM | GI50 (HL-60(TB) leukemia): > 100 µM | TGI (HL-60(TB) leukemia): > 100 µM | GI50 (COLO 205 colon): 30 µM | TGI (COLO 205 colon): > 100 µM | GI50 (IGROV1 ovarian): 84.7 µM | TGI (IGROV1 ovarian): > 100 µM | GI50 (MDA-MB-435): 36.5 µM | TGI (MDA-MB-435): > 100 µM | GI50 (SNB-19 CNS): 37.7 µM | TGI (SNB-19 CNS): > 100 µM | GI50 (T-47D breast): 9.64 µM | TGI (T-47D breast): 77.7 µM | GI50 (OVCAR-3 ovarian): 26.6 µM | TGI (OVCAR-3 ovarian): 98.6 µM | GI50 (SNB-75 CNS): 31.1 µM | TGI (SNB-75 CNS): > 100 µM

— PubChem BioAssay (NCI)
